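Method: 48-hour compound exposure of cells in 96-well plates, five concentrations, linear interpolation of endpoints. At the TGI there is no net growth.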
Legend:
Test in all cases: growth of human tumour cells (NCI), 48 h
[1] = tested on: M14 melanoma
[2] = tested on: SNB-75 CNS
[3] = tested on: UO-31 renal
[4] = tested on: LXFL 529 NSCLC
[5] = tested on: M19-MEL melanoma
[6] = tested on: OVCAR-5 ovarian
[7] = tested on: EKVX NSCLC
[8] = tested on: SW-620 colon
[9] = tested on: UACC-257 melanoma
[10] = tested on: SNB-78 CNS
[11] = tested on: KM12 colon
[12] = tested on: SK-MEL-5 melanoma
[13] = tested on: NCI-H522 lung
[14] = tested on: K-562 leukemia
[15] = tested on: SK-MEL-28 melanoma
[16] = tested on: DLD-1 colon
[17] = tested on: SF-539 CNS
[18] = tested on: DMS 273 small cell lung
[19] = tested on: KM20L2 colon
[20] = tested on: OVCAR-8 ovarian
[21] = tested on: SNB-19 CNS
[22] = tested on: CCRF-CEM leukemia
[23] = tested on: 786-0 renal
[24] = tested on: A549 NSCLC
[25] = tested on: NCI-H226 lung
[26] = tested on: MALME-3M melanoma
[27] = tested on: HCC-2998 colon
[28] = tested on: SK-OV-3 ovarian
[29] = tested on: MOLT-4 leukemia
[30] = tested on: SN12C renal
[31] = tested on: COLO 205 colon
[32] = tested on: LOX IMVI melanoma
[33] = tested on: HOP-18 NSCLC
[34] = tested on: HOP-92 NSCLC
[35] = tested on: SF-295 CNS
[36] = tested on: HCT-116 colon
[37] = tested on: A498 renal
[38] = tested on: IGROV1 ovarian
[39] = tested on: OVCAR-4 ovarian
[40] = tested on: NCI-H23 lung
[41] = tested on: SR leukemia
[42] = tested on: OVCAR-3 ovarian
[43] = tested on: U251 CNS
[44] = tested on: XF 498 CNS
[45] = tested on: CAKI-1 renal
[46] = tested on: ACHN renal
[47] = tested on: SK-MEL-2 melanoma
[48] = tested on: HOP-62 NSCLC
[49] = tested on: RXF 393 renal
[50] = tested on: SF-268 CNS
[51] = tested on: HL-60(TB) leukemia
[52] = tested on: UACC-62 melanoma
[53] = tested on: HT29 colon
[54] = tested on: TK-10 renal
[55] = tested on: HCT-15 colon
[56] = tested on: DMS 114 small cell lung
[57] = tested on: NCI-H460 lung
[58] = tested on: RPMI-8226 leukemia

For Fc1cccc2c1cc1ccc3cccc4ccc2c1c34, the TGI [1] was > 100 µM, the TGI [2] was > 100 µM and the TGI [3] was > 100 µM. The TGI [4] was > 100 µM, the TGI [5] was > 100 µM and the TGI [6] was > 100 µM. The TGI [7] was > 100 µM, the TGI [8] was > 100 µM and the TGI [9] was > 100 µM. The TGI [10] was > 100 µM, the TGI [11] was > 100 µM and the TGI [12] was > 100 µM. For the same compound, the TGI [13] was > 100 µM, the TGI [14] was > 100 µM and the TGI [15] was > 100 µM. For the same compound, the TGI [16] was > 100 µM, the TGI [17] was > 100 µM and the TGI [18] was > 100 µM. For the same compound, the TGI [19] was > 100 µM, the TGI [20] was > 100 µM and the TGI [21] was > 100 µM. The TGI [22] was > 100 µM, the TGI [23] was > 100 µM and the TGI [24] was > 100 µM. For the same compound, the TGI [25] was > 100 µM, the TGI [26] was > 100 µM and the TGI [27] was > 100 µM. For the same compound, the TGI [28] was > 100 µM, the TGI [29] was > 100 µM and the TGI [30] was > 100 µM. For the same compound, the TGI [31] was > 100 µM, the TGI [32] was > 100 µM and the TGI [33] was > 100 µM. The TGI [34] was > 100 µM, the TGI [35] was > 100 µM and the TGI [36] was > 100 µM. For the same compound, the TGI [37] was > 100 µM, the TGI [38] was > 100 µM and the TGI [39] was > 100 µM. For the same compound, the TGI [40] was > 100 µM, the TGI [41] was > 100 µM and the TGI [42] was > 100 µM. The TGI [43] was > 100 µM, the TGI [44] was > 100 µM and the TGI [45] was > 100 µM. For the same compound, the TGI [46] was > 100 µM, the TGI [47] was > 100 µM and the TGI [48] was > 100 µM. The TGI [49] was > 100 µM, the TGI [50] was > 100 µM and the TGI [51] was > 100 µM. The TGI [52] was > 100 µM, the TGI [53] was > 100 µM and the TGI [54] was > 100 µM.

With O=C1CC(O)(c2ccccc2)C(c2ccccc2)=C1c1ccccc1 (configuration not stated) the TGI [1] was > 100 µM, the TGI [2] was 96.7 µM and the TGI [4] was > 100 µM. For the same compound, the TGI [55] was > 100 µM, the TGI [5] was 91.4 µM and the TGI [56] was 89.8 µM. The TGI [6] was > 100 µM, the TGI [7] was > 100 µM and the TGI [57] was > 100 µM. For the same compound, the TGI [8] was > 100 µM, the TGI [9] was > 100 µM and the TGI [10] was > 100 µM. The TGI [11] was > 100 µM, the TGI [12] was 86.7 µM and the TGI [13] was 54.1 µM. The TGI [14] was > 100 µM, the TGI [15] was > 100 µM and the TGI [16] was > 100 µM. The TGI [18] was > 100 µM, the TGI [19] was > 100 µM and the TGI [20] was > 100 µM. For the same compound, the TGI [22] was > 100 µM, the TGI [23] was > 100 µM and the TGI [24] was > 100 µM. The TGI [26] was > 100 µM, the TGI [27] was > 100 µM and the TGI [28] was > 100 µM. For the same compound, the TGI [29] was 81.5 µM, the TGI [30] was > 100 µM and the TGI [31] was 35.7 µM. The TGI [32] was > 100 µM, the TGI [34] was 61.3 µM and the TGI [35] was > 100 µM. For the same compound, the TGI [58] was 57.7 µM, the TGI [38] was > 100 µM and the TGI [39] was > 100 µM. For the same compound, the TGI [40] was > 100 µM, the TGI [42] was 88.2 µM and the TGI [44] was 73.5 µM. The TGI [45] was > 100 µM, the TGI [46] was > 100 µM and the TGI [47] was > 100 µM. For the same compound, the TGI [48] was > 100 µM, the TGI [49] was > 100 µM and the TGI [50] was > 100 µM. The TGI [51] was 56.3 µM, the TGI [52] was > 100 µM and the TGI [53] was > 100 µM. The TGI [54] was > 100 µM.

NCCN1C(=O)C2C3c4ccccc4C(c4ccccc43)C2C1=O (configuration not stated) was tested, and the TGI [1] was > 100 µM, the TGI [2] was > 100 µM and the TGI [3] was > 100 µM. The TGI [4] was > 100 µM, the TGI [55] was > 100 µM and the TGI [5] was > 100 µM. The TGI [56] was > 100 µM, the TGI [6] was > 100 µM and the TGI [7] was > 100 µM. For the same compound, the TGI [57] was > 100 µM, the TGI [8] was > 100 µM and the TGI [9] was > 100 µM. For the same compound, the TGI [10] was > 100 µM, the TGI [11] was > 100 µM and the TGI [12] was > 100 µM. For the same compound, the TGI [13] was > 100 µM, the TGI [14] was > 100 µM and the TGI [15] was > 100 µM. The TGI [16] was > 100 µM, the TGI [17] was > 100 µM and the TGI [18] was > 100 µM. The TGI [19] was > 100 µM, the TGI [20] was > 100 µM and the TGI [21] was > 100 µM. For the same compound, the TGI [22] was > 100 µM, the TGI [23] was > 100 µM and the TGI [24] was > 100 µM. The TGI [25] was > 100 µM, the TGI [26] was > 100 µM and the TGI [27] was > 100 µM. The TGI [28] was > 100 µM, the TGI [29] was > 100 µM and the TGI [30] was > 100 µM. The TGI [31] was > 100 µM, the TGI [33] was > 100 µM and the TGI [34] was > 100 µM. The TGI [35] was > 100 µM, the TGI [58] was > 100 µM and the TGI [36] was > 100 µM. The TGI [37] was > 100 µM, the TGI [38] was > 100 µM and the TGI [39] was > 100 µM. For the same compound, the TGI [40] was > 100 µM, the TGI [42] was > 100 µM and the TGI [43] was > 100 µM. The TGI [45] was > 100 µM, the TGI [46] was > 100 µM and the TGI [47] was > 100 µM. For the same compound, the TGI [48] was > 100 µM, the TGI [50] was > 100 µM and the TGI [51] was > 100 µM. The TGI [52] was > 100 µM, the TGI [53] was > 100 µM and the TGI [54] was > 100 µM.

Source: PubChem BioAssay (NCI)
